Assay results taken from patent US10689622B2, “Culture medium for proliferating stem cell, which contains sulfated compound” (AJINOMOTO CO., INC., priority 2012, dated 2020).
Each block holds one substance with its values, some of them ahead of it.

Experiments:
bFGF [1] = molecular target: T1, bFGF (Homo sapiens, UniProt P09038); assay: Evaluation of bFGF stabilization in Lonza serum-free medium (ELISA); type: biochemical
T1 construct: purchased Lonza (via TAKARA BIO INC.) Ser. No. 00/190,632
Method: (§1) A test compound was dissolved in phosphate buffered saline, and diluted 10-fold with a serum-free medium to adjust to the concentrations shown in Table 4 (test sample). The test sample was left standing in a tightly sealed Falcon tube at 37° C. for 7 days (Tables 5 to 8-2) or 3 days (Table 8-3), and the bFGF concentration was quantified by ELISA measurement. A phosphate buffered saline without a test compound was diluted 10-fold with a serum-free medium, and left standing at 37° C. or 4° C. for 7 days or 3 days, and used as a control.
(§2) A commercially available measurement kit (human bFGF ELISA kit, ELH-bFGF-001, Ray Biotech) was used for quantification of bFGF in the medium. The measurement procedures followed the protocol attached to the kit. The bFGF concentration of the serum-free medium was calculated from the analytical curve (conversion formula) drawn from the absorbance of an analytical curve standard solution. The evaluation criteria of Tables 5-8 are as follows:
as §1, with “Table 13” for “Table 4”, “7 days,” for “7 days (Tables 5 to 8-2) or 3 days (Table 8-3),”, “7” for “7 days or 3”
as §2, with “Table 13” for “Tables 5-8”, “follows: […]” for “follows:”

bFGF [2] = molecular target: T1, bFGF; assay: Evaluation of bFGF stabilization in Essential 8 medium (ELISA); type: biochemical; details: 37° C. for 7 days
Method: as §2
(§3) A test compound was dissolved in phosphate buffered saline, and diluted 10-fold with a serum-free medium to adjust the concentration shown in Table 4 (test sample). The test sample was left standing in a tightly sealed Falcon tube at 37° C. for 7 days, and the bFGF concentration was quantified by ELISA measurement. A phosphate buffered saline without a test compound was diluted 10-fold with Essential 8 medium or ReproFF2 medium, and left standing at 37° C. or 4° C. for 7 days, and used as a control.
as §2, with “Table 13” for “Tables 5-8”
as §3, with “Table 12” for “Table 4”

[3] = Measurement of content level of sulfur in test compound (ICP); type: physicochemical
Excerpt: (§4) The content level of sulfur in the sulfated saccharide is generally not less than 5 wt %, preferably not less than 10 wt %, more preferably not less than 15 wt %, and the upper limit is generally not more than 40 wt %, preferably not more than 35 wt %, more preferably not more than 30 wt %. […] Here, the content level of sulfur is a proportion in wt % of sulfur derived only from the sulfate group in sulfated saccharides, which can be measured by a method known in the field (e.g., rhodizonate method, elemental analysis or luminescent spectral analysis).
as §4, with “polymer” for “saccharide”, “wt” for “wt %, preferably not more than 35 wt %, more preferably not more than 30 wt”, “in” for “derived only from”, “the” for “the sulfate group in”, “polymer,” for “saccharides,”, “such as” for “(e.g.,”
The relationship between the content level of sulfur in a test compound (sulfur content) and the cell proliferation promoting effect was examined. The sulfur content was measured using ICPS-8100 manufactured by SHIMADZU CORPORATION and analyzed using ICPS-8000 series Ver1.03. As the reference standard of sulfur, the standard for ICP-MS manufactured by Accu Standard was used. Sulfur reference standard solutions (0, 1, 10, 30, 50 ppm) were prepared, and the sulfur content of the evaluation samples containing 0.01 wt % test compound was measured by an analytical curve method.

[4] = tested on: Human bone marrow-derived mesenchymal stem cells; assay: Mesenchymal stem cell proliferation system (cell number by DNA quantification); details: for number of cells relative to control: mesenchymal stem cells
[5] = Lonza serum-free medium, 37° C. for 7 days, test compound 25 ng/ml
[6] = Lonza serum-free medium, 37° C. for 7 days, test compound 250 ng/ml
[7] = Lonza serum-free medium, 37° C. for 7 days, test compound 25 μg/ml
[8] = Lonza serum-free medium, 37° C. for 7 days, test compound 250 μg/ml

T1 sequence (P09038 143-288): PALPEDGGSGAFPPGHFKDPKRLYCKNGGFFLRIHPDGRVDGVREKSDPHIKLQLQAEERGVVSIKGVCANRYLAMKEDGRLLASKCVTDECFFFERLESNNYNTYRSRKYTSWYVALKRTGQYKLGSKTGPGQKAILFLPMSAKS

concentration showing a suppressive effect on a decrease in the bFGF concentration of the medium (bFGF [1]; Lonza serum-free medium, 37° C. for 7 days): not less than 25 μg/ml
concentration at which a decrease in the protein amount of FGF is not suppressed (bFGF [1]; as shown in the Examples (methods of Examples I-1 and II-1)): not more than 2.5 μg/ml
sulfer content Found (inorganic analysis) [3]: 18
Substance: L-triserine SO3Na
bFGF concentration relative to that of 4° C. control (ELISA) (bFGF [1]; Lonza serum-free medium, 37° C. for 7 days, test compound 250 pg/ml): x (bFGF concentration was less than 10% relative to that of 4 °C control)
bFGF concentration relative to that of 4° C. control (ELISA) (bFGF [1]; [5]): x (bFGF concentration was less than 10% relative to that of 4 °C control)
bFGF concentration relative to that of 4° C. control (ELISA) (bFGF [1]; [6]): x (bFGF concentration was less than 10% relative to that of 4 °C control)
bFGF concentration relative to that of 4° C. control (ELISA) (bFGF [1]; [7]): − (bFGF concentration was not less than 10% and less than 30% relative to that of 4 °C control)
bFGF concentration relative to that of 4° C. control (ELISA) (bFGF [1]; [8]): ++ (bFGF concentration was not less than 50% and less than 70% relative to that of 4 °C control)
effectiveness ELISA (bFGF [1]; summary grade of bFGF stabilization): ++ (bFGF concentration was not less than 50% and less than 70% relative to that of 4 °C control)
bFGF concentration, 4° C. ctrl ratio (bFGF [2]; test compound 250 pg/ml): x (bFGF concentration was less than 10% relative to that of 4 °C control)
bFGF concentration, 4° C. ctrl ratio (bFGF [2]; test compound 25 ng/ml): x (bFGF concentration was less than 10% relative to that of 4 °C control)
bFGF concentration, 4° C. ctrl ratio (bFGF [2]; test compound 250 ng/ml): x (bFGF concentration was less than 10% relative to that of 4 °C control)
bFGF concentration, 4° C. ctrl ratio (bFGF [2]; test compound 25 μg/ml): ++ (bFGF concentration was not less than 50% and less than 70% relative to that of 4 °C control)
bFGF concentration, 4° C. ctrl ratio (bFGF [2]; test compound 250 μg/ml): +++ (bFGF concentration was not less than 70% relative to that of 4 °C control)
effectiveness cells ([4]; summary grade of cell proliferation): ⊚ (not less than 120)
number of cells relative to control ([4]; test compound 25 pg/ml): — (100-50)
number of cells relative to control ([4]; test compound 250 pg/ml): ◯ (not less than 100)
number of cells relative to control ([4]; test compound 25 ng/ml): — (100-50)
number of cells relative to control ([4]; test compound 250 ng/ml): — (100-50)

concentration showing a suppressive effect on a decrease in the bFGF concentration in the medium (bFGF [1]; Lonza serum-free medium, 37° C. for 3 days): not less than 25 μg/ml
effectiveness ELISA (bFGF [1]; effectiveness in ELISA evaluation of mesenchymal stem cells (medium), 4° C. control ratio): + (+ 30%<)
concentration showing a suppressive effect on a decrease in the bFGF concentration of the medium (bFGF [2]): not less than 25 μg/ml
sulfur content Found (inorganic analysis) ([3]; ICPS-8100, evaluation samples containing 0.01 wt % test compound): 16 wt %
Substance: erythritol SO3Na
bFGF concentration relative to that of 4° C. control (ELISA) (bFGF [1]; Lonza serum-free medium, 37° C. for 3 days, test compound 25 ng/ml): x (bFGF concentration was less than 10% relative to that of 4 °C control)
bFGF concentration relative to that of 4° C. control (ELISA) (bFGF [1]; Lonza serum-free medium, 37° C. for 3 days, test compound 250 ng/ml): x (bFGF concentration was less than 10% relative to that of 4 °C control)
bFGF concentration relative to that of 4° C. control (ELISA) (bFGF [1]; Lonza serum-free medium, 37° C. for 3 days, test compound 25 μg/ml): ++ (bFGF concentration was not less than 50% and less than 70% relative to that of 4 °C control)
bFGF concentration relative to that of 4° C. control (ELISA) (bFGF [1]; Lonza serum-free medium, 37° C. for 3 days, test compound 250 μg/ml): +++ (bFGF concentration was not less than 70% relative to that of 4 °C control)
bFGF concentration relative to that of 4° C. control (ELISA) (bFGF [1]; [5]): x (bFGF concentration was less than 10% relative to that of 4 °C control)
bFGF concentration relative to that of 4° C. control (ELISA) (bFGF [1]; [6]): x (bFGF concentration was less than 10% relative to that of 4 °C control)
bFGF concentration relative to that of 4° C. control (ELISA) (bFGF [1]; [7]): x (bFGF concentration was less than 10% relative to that of 4 °C control)
bFGF concentration relative to that of 4° C. control (ELISA) (bFGF [1]; [8]): + (bFGF concentration was not less than 30% and less than 50% relative to that of 4 °C control)
bFGF concentration relative to that of 4° C. control (ELISA) (bFGF [2]; test compound 250 pg/ml): x (bFGF concentration was less than 10% relative to that of 4 °C control)
bFGF concentration relative to that of 4° C. control (ELISA) (bFGF [2]; test compound 25 ng/ml): x (bFGF concentration was less than 10% relative to that of 4 °C control)
bFGF concentration relative to that of 4° C. control (ELISA) (bFGF [2]; test compound 250 ng/ml): x (bFGF concentration was less than 10% relative to that of 4 °C control)
bFGF concentration relative to that of 4° C. control (ELISA) (bFGF [2]; test compound 25 μg/ml): + (bFGF concentration was not less than 30% and less than 50% relative to that of 4 °C control)
bFGF concentration relative to that of 4° C. control (ELISA) (bFGF [2]; test compound 250 μg/ml): +++ (bFGF concentration was not less than 70% relative to that of 4 °C control)
effectiveness cells ([4]; growth of mesenchymal stem cell, control ratio): ◯ (◯ not leas than 100%)
